Reference: US10800792B2, “Inhibitors of Bruton's tyrosine kinase and method of their use” (JANSSEN PHARMACEUTICA NV, priority 2015, dated 2020)

Biological target: unphosphorylated-BTK kinase domain (UP-BTK), GST-tagged human BTK (389-659aa) (Homo sapiens (Human), UniProt Q06187)
Assay: BTK kinase Lanthascreen binding assay
Conditions: Lanthascreen tracer competition, 60 minutes incubation, pIC50 = negative log of the IC50 in molar
Summary of the method: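 Values are pIC50, i.e. negative log of IC50 in molar, derived from concentration–response fitting. Each compound competes with a fluorescently labelled tracer for the unphosphorylated kinase domain.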

Chain of unphosphorylated-BTK kinase domain (UP-BTK), GST-tagged human BTK (389-659aa) (Q06187 389-659): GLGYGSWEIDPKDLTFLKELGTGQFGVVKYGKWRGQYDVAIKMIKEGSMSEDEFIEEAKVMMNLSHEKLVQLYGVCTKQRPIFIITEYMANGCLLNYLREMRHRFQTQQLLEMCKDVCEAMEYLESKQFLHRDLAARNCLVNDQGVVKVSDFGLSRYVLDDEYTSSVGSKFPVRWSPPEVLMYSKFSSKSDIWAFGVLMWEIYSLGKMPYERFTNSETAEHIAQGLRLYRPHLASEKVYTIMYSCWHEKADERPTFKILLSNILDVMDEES

Row | BTK_I_binding pIC50 | IC50 (read-out: BTK_I_binding pIC50 (converted)) [nM] | Structure (SMILES)
1 | 6.2 |  | C=CC(=O)N1CCC[C@@H](NC(=O)c2sc3nccc4c3c2NC(=O)N4c2cnc(OC3CCCC3)cc2C)C1 (single isomer, unassigned) [Example 769, (R)—N-(1-Acryloylpiperidin-3-yl)-5-(*R)-(6-(cyclopentyloxy)-4-methylpyridin-3-yl)-4-oxo-4,5-dihydro-3H-1-thia-3,5,8-triazaacenaphthylene-2-carboxamide]
2 | 7.7 |  | Cc1cc(Oc2ccccc2)ccc1N1C(=O)Nc2c(C(=O)N[C@@H]3CCCN(C(=O)C(C#N)=CC4(C)COC4)C3)sc3nccc1c23 (single isomer, unassigned) [Example 782, (R,EZ)—N-(1-(2-Cyano-3-(3-methyloxetan-3-yl)acryloyl)piperidin-3-yl)-5-(*S)-(2-methyl-4-phenoxyphenyl)-4-oxo-4,5-dihydro-3H-1-thia-3,5,8-triazaacenaphthylene-2-carboxamide]
3 | 8.1 |  | C=CC(=O)N1CCC[C@@H](NC(=O)c2sc3nccc4c3c2NC(=O)N4c2cnc(OC(C)C)cc2C)C1 (single isomer, unassigned) [Example 789, (R)—N-(1-Acryloylpiperidin-3-yl)-5-(*S)-(6-isopropoxy-4-methylpyridin-3-yl)-4-oxo-4,5-dihydro-3H-1-thia-3,5,8-triazaacenaphthylene-2-carboxamide]
4 | 6.8 |  | Cc1nc(Oc2ccccc2)ccc1N1C(=O)Nc2c(C(=O)N[C@@H]3CCOC3)sc3nccc1c23 (single isomer, unassigned) [Example 793, (R)-5-(*S)-(2-Methy-6-phenoxypyridin-3-yl)-4-oxo-N-(tetrahydrofuran-3-yl)-4,5-dihydro-3H-1-thia-3,5,8-triazaacenaphthylene-2-carboxamide]
5 | 6.5 |  | Cc1cc(OC(C)C)ncc1N1C(=O)Nc2c(C(=O)N[C@@H]3CCCNC3)sc3nccc1c23 (single isomer, unassigned) [Example 794, (R)-5-(*S)-(6-Isopropoxy-4-methylpyridin-3-yl)-4-oxo-N-(piperidin-3-yl)-4,5-dihydro-3H-1-thia-3,5,8-triazaacenaphthylene-2-carboxamide]
6 | 6.3 |  | Cc1cc(OC2CCCC2)ncc1N1C(=O)Nc2c(C(=O)N[C@@H]3CCNC3)sc3nccc1c23 (single isomer, unassigned) [Example 797, (R)-5-(*S)-(6-(Cyclopentyloxy)-4-methylpyridin-3-yl)-4-oxo-N-(pyrrolidin-3-yl)-4,5-dihydro-3H-1-thia-3,5,8-triazaacenaphthylene-2-carboxamide]
7 | 6.1 |  | C=CC(=O)N1CCC[C@@H](NC(=O)c2sc3nccc4c3c2NC(=O)N4c2cnc(OC(C)C)cc2C)C1 (single isomer, unassigned) [Example 804, (R)—N-(1-Acryloylpiperidin-3-yl)-5-(*R)-(6-isopropoxy-4-methylpyridin-3-yl)-4-oxo-4,5-dihydro-3H-1-thia-3,5,8-triazaacenaphthylene-2-carboxamide]
8 | <6 |  | Cc1cc(OC(C)C)ncc1N1C(=O)Nc2c(C(=O)N[C@@H]3CCCNC3)sc3nccc1c23 (single isomer, unassigned) [Example 806, (R)-5-(*R)-(6-Isopropoxy-4-methylpyridin-3-yl)-4-oxo-N-(piperidin-3-yl)-4,5-dihydro-3H-1-thia-3,5,8-triazaacenaphthylene-2-carboxamide]
9 |  | > 1000 | C=CC(=O)N1CCC[C@@H](NC(=O)c2sc3nccc4c3c2NC(=O)N4c2ccc(OC3CCOCC3)cc2C)C1 (single isomer, unassigned) [Example 813, (R)—N-(1-Acryloylpiperidin-3-yl)-5-(*S)-(2-methyl-4-((tetrahydro-2H-pyran-4-yl)oxy)phenyl)-4-oxo-4,5-dihydro-3H-1-thia-3,5,8-triazaacenaphthylene-2-carboxamide]

Continued, compound first:

Row | Structure (SMILES) | BTK_I_binding pIC50 | IC50 (read-out: BTK_I_binding pIC50 (converted)) [nM]
10 | C=CC(=O)N1CCC[C@@H](NC(=O)c2sc3nccc4c3c2NC(=O)N4c2ccc(OC(C)C)nc2C)C1 (single isomer, unassigned) [Example 753, (R)—N-(1-Acryloylpiperidin-3-yl)-5-(*S)-(6-isopropoxy-2-methylpyridin-3-yl)-4-oxo-4,5-dihydro-3H-1-thia-3,5,8-triazaacenaphthylene-2-carboxamide] | 6.2 | 
11 | C=CC(=O)N1CCC[C@@H](NC(=O)c2sc3nccc4c3c2NC(=O)N4c2ccc(OC(C)C)nc2C)C1 (single isomer, unassigned) [Example 757, (R)—N-(1-Acryloylpiperidin-3-yl)-5-(*R)-(6-isopropoxy-2-methylpyridin-3-yl)-4-oxo-4,5-dihydro-3H-1-thia-3,5,8-triazaacenaphthylene-2-carboxamide] | <6 | 
12 | Cc1cc(OCC(C)C)ncc1N1C(=O)Nc2c(C(=O)N[C@@H]3CCCNC3)sc3nccc1c23 (single isomer, unassigned) [Example 759, (R)-5-(*S)-(6-Isobutoxy-4-methylpyridin-3-yl)-4-oxo-N-(piperidin-3-yl)-4,5-dihydro-3H-1-thia-3,5,8-triazaacenaphthylene-2-carboxamide] | 6.7 | 
13 | Cc1cc(OCC(C)C)ncc1N1C(=O)Nc2c(C(=O)N[C@@H]3CCCNC3)sc3nccc1c23 (single isomer, unassigned) [Example 760, (R)-5-(*R)-(6-Isobutoxy-4-methylpyridin-3-yl)-4-oxo-N-(piperidin-3-yl)-4,5-dihydro-3H-1-thia-3,5,8-triazaacenaphthylene-2-carboxamide] | <6 | 
14 | Cc1cc(OC2CCCC2)ncc1N1C(=O)Nc2c(C(=O)N[C@@H]3CCCNC3)sc3nccc1c23 (single isomer, unassigned) [Example 761, (R)-5-(*S)-(6-(Cyclopentyloxy)-4-methylpyridin-3-yl)-4-oxo-N-(piperidin-3-yl)-4,5-dihydro-3H-1-thia-3,5,8-triazaacenaphthylene-2-carboxamide] | 7.1 | 
15 | Cc1cc(OC2CCCC2)ncc1N1C(=O)Nc2c(C(=O)N[C@@H]3CCCNC3)sc3nccc1c23 (single isomer, unassigned) [Example 762, (R)-5-(*R)-(6-(Cyclopentyloxy)-4-methylpyridin-3-yl)-4-oxo-N-(piperidin-3-yl)-4,5-dihydro-3H-1-thia-3,5,8-triazaacenaphthylene-2-carboxamide] | <6 | 
16 | C=CC(=O)N1CCC[C@@H](NC(=O)c2sc3nccc4c3c2NC(=O)N4c2cnc(OC3CCCC3)cc2C)C1 (single isomer, unassigned) [Example 768, (R)—N-(1-Acryloylpiperidin-3-yl)-5-(*S)-(6-(cyclopentyloxy)-4-methylpyridin-3-yl)-4-oxo-4,5-dihydro-3H-1-thia-3,5,8-triazaacenaphthylene-2-carboxamide] | 8.2 | 
17 | Cc1cc(OCC(C)C)ncc1N1C(=O)Nc2c(C(=O)N[C@@H]3CCNC3)sc3nccc1c23 (single isomer, unassigned) [Example 798, (R)-5-(*S)-(6-Isobutoxy-4-methylpyridin-3-yl)-4-oxo-N-(pyrrolidin-3-yl)-4,5-dihydro-3H-1-thia-3,5,8-triazaacenaphthylene-2-carboxamide] | 6.3 | 
